Experimental data: patent US20260256769A1, “ARTERIOSCLEROSIS SUPPRESSION THROUGH INHIBITION OF TRANSCRIPTION FACTOR FoxO1” (TEIKYO UNIVERSITY, priority 2022, published 2026)

Experiments:
bone marrow monocytes = assay: CD11c expression in bone marrow monocytes by real-time PCR after intraperitoneal administration; format: in vivo; settings: wild-type mice, 20 mg/kg intraperitoneally for 2 weeks, vs DMSO-treated group
Description: (§1) In this Example, the following experiment was carried out. First, the FoxO1 inhibitor AS1842856 (20 mg/kg) was intraperitoneally administered to Syk gene-deficient mice (Syk^del/del) and wild-type mice (Syk^+/+) for 2 weeks. The expression of CD11c in collected bone marrow monocytes was measured by real-time PCR, and the CD11c expression (%) in peripheral blood monocytes (CD115 positive cells) was measured by flow cytometry. CD115 is a monocyte marker.

[1] = system: bone marrow-derived macrophages; assay: CD11c on the cell surface of bone marrow-derived macrophages by flow cytometry; format: cell-based, mice; settings: vs DMSO-treated control group
Description: Next, we assumed that the transcription factor that binds to the nucleotide sequence of the determined region as above was FoxO1, and a FoxO1 inhibitor AS1842856 was administered to the bone marrow-derived macrophages respectively collected from Syk gene-deficient mice (Syk^del/del) and wild-type mice (Syk^+/+), and CD11c on the cell surface was measured by flow cytometry.

[2] = system: peripheral blood monocytes (CD115 positive cells); assay: CD11c expression (%) in peripheral blood monocytes (CD115 positive cells) by flow cytometry after intraperitoneal administration; format: in vivo; settings: wild-type mice, 20 mg/kg intraperitoneally for 2 weeks, vs DMSO-treated group
Description: as §1

[3] = system: atherosclerosis lesions in the aortic sinus; assay: Atherosclerosis lesions in the aortic sinus evaluated using HE staining; format: in vivo; settings: wild-type mice (Syk+/+), 20 mg/kg intraperitoneally for 8 weeks, vs DMSO-treated group
Description: Next, after the FoxO1 inhibitor AS1842856 (20 mg/kg) was intraperitoneally administered to wild-type mice (Syk^+/+) for 8 weeks, atherosclerosis lesions in the aortic sinus were evaluated using HE staining.

CCn1cc(C(=O)O)c(=O)c2c(N)c(F)c(NC3CCCCC3)cc21 [AS1842856, 5-amino-7-(cyclohexylamino)-1-ethyl-6-fluoro-4-oxo-1,4-dihydroquinoline-3-carboxylic acid]
CD11c expression in bone marrow monocytes (bone marrow monocytes): significantly decreased | expression of CD11c on the cell surface ([1]; bone marrow-derived macrophages from Syk gene-deficient mice (Syk del/del)): no significant difference | expression of CD11c on the cell surface ([1]; bone marrow-derived macrophages from wild-type mice (Syk+/+)): significantly decreased | CD11c/CD115 ratio in peripheral blood monocytes [2]: significantly decreased | atherosclerosis lesions in the aortic sinus [3]: Atherosclerosis was suppressed
